IC50 data for 26 molecules are collected here from patent EP1712550A2, “Substituted triazole diamine derivatives as kinase inhibitors” (priority 2000, dated 2002).

What all share (type): biochemical
The target in assay [1] is T1, EGFR (epidermal growth factor receptor) (Homo sapiens, UniProt P00533).
T1 construct: is purified from human A431 cell membranes (Sigma, St. Louis, MO, Cat.# E3641); purchased Sigma, St. Louis, MO E3641; host or cells: human A431 cell membranes (endogenous protein)
The assay can be described thus: Kinase Selectivity Assay EGF-R. As to conditions: for pIC50: Kinase Selectivity, Table 2, read-out: EGF-R IC50; for IC50: read-out: Kinase Assay (IC50 uM) EGF-R.

Assay [2] concerns the target T2, VEGF-R (vascular endothelial growth factor receptor-2) (Rattus norvegicus, UniProt O08775).
T2 construct: 6xHis (polyhistidine) (N)
The assay can be described thus: VEGF-R Screening Assay. As to conditions: read-out: Kinase Assay (IC50 uM) VEGF-R. Here is the method: (§1) 70 µL of the kinase reaction mixture was dispensed into the well of a streptavidin coated FlashPlate™ (Cat. # SMP103, NEN, Boston, MA). Then 1 µL of test compound stock in 100% DMSO was added to the wells resulting in a final concentration of 1% DMSO in the reaction with a 100 µL final reaction volume. Next, soluble rat tyrosine kinase containing an N-terminal 6XHIS tag was diluted in 50 mM Tris-HCl pH=8.0, 0.1% BSA at a concentration of 5 ng per µL and 30 µL (150 ng enzyme per test well) was added to each well to initiate the reaction. The reaction was incubated for one hour at 30°C. At the end of the 1-hour incubation, the reaction was terminated by aspirating the reaction mixture from the plate and washing the wells twice with PBS containing 100 mM EDTA. The PLC1 biotinylated peptide substrate became immobilized on the Flashplate™ and the incorporation of ^33P-γ-ATP was measured by reading the plate on a scintillation counter. Inhibition of the enzymatic activity of the VEGF-R was measured by observing a reduced amount of ^33P-γ-ATP incorporated into the immobilized peptide. […]

For a further assay, the target named is T3, CDK1:Cyclin-B (Homo sapiens, UniProt P06493).
T3 construct: purchased New England Biolabs, Beverly, MA 6020; host or cells: insect cells
T3 sequence (P06493 whole entry): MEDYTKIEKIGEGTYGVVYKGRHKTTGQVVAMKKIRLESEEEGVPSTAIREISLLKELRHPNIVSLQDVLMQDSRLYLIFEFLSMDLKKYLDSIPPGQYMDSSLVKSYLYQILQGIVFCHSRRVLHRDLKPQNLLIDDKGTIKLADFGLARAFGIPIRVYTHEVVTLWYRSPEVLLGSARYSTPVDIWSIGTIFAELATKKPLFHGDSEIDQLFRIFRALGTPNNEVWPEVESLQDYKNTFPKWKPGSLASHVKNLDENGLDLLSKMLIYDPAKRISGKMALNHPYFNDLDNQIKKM
T3 sequence (P14635 whole entry partner): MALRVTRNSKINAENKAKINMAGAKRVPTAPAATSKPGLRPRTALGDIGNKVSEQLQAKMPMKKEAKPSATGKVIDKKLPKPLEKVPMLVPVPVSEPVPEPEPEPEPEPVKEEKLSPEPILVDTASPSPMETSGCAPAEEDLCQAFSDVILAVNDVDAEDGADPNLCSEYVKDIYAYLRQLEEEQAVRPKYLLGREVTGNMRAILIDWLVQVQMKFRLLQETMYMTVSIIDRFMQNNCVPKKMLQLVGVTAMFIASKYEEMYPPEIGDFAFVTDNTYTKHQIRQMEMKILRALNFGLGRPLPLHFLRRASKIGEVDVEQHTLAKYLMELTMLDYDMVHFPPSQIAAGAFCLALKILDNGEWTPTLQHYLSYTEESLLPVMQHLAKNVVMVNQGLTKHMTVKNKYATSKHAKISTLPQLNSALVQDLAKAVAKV
The assay can be described thus: CDK1 Screening Assay. As to conditions: read-out: Kinase Assay (IC50 uM) CDK1. Here is the method: as §1, with “100 µl” for “100 µL”, “Next, CDK1:Cyclin-B protein” for “Next, soluble rat tyrosine kinase containing an N-terminal 6XHIS tag”, “of 1” for “of 5”, “30 µl (30ng” for “30 µL (150 ng”, “The histone-H1” for “The PLC1”, “of CDK1” for “of the VEGF-R”

For assay [3], the target named is T4, HER2 (human epidermal growth factor receptor-2) (Homo sapiens, UniProt P04626).
T4 construct: begins at amino acid 676 followed by the remainder of the HER2 cytoplasmic domain; polyhistidine (N)
T4 sequence (P04626 676-1255 limits assumed): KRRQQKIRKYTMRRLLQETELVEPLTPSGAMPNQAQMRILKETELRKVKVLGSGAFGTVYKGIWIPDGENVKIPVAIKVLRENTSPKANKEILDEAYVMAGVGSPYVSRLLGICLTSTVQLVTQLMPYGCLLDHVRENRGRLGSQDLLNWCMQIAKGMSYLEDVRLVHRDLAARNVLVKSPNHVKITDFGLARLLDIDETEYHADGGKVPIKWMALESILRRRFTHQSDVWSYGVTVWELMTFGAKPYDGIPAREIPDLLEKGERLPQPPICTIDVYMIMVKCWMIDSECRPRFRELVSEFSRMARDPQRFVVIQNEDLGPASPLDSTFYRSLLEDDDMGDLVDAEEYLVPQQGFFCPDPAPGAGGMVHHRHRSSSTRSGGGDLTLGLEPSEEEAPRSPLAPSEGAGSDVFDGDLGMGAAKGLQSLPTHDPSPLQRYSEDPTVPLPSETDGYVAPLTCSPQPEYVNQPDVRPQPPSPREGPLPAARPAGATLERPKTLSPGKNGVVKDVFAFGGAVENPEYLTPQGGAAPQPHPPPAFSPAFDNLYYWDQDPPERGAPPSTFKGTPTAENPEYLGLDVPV
The assay can be described thus: Kinase Selectivity Assay HER2. As to conditions: for IC50: read-out: Kinase Assay (IC50 uM) HER2 Kinase.

pIC50: −log10 of the molar value. Where two headings read alike, the source gives them in different places.

T2 sequence (O08775 786-1343): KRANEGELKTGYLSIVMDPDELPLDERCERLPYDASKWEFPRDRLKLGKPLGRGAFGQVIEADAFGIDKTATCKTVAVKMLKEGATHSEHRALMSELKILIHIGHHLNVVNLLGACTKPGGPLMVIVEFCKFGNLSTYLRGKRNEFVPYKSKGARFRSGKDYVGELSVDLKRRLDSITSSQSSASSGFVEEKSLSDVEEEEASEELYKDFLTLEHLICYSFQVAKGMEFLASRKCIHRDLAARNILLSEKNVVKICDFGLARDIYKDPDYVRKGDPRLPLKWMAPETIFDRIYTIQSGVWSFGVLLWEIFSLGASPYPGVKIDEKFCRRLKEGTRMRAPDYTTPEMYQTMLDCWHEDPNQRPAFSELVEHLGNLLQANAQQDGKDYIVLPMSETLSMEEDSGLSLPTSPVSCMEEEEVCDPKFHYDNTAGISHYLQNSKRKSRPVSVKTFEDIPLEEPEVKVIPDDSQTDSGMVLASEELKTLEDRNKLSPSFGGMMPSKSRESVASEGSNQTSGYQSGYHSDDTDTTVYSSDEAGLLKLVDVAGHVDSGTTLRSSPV
T1 sequence (P00533 25-1210): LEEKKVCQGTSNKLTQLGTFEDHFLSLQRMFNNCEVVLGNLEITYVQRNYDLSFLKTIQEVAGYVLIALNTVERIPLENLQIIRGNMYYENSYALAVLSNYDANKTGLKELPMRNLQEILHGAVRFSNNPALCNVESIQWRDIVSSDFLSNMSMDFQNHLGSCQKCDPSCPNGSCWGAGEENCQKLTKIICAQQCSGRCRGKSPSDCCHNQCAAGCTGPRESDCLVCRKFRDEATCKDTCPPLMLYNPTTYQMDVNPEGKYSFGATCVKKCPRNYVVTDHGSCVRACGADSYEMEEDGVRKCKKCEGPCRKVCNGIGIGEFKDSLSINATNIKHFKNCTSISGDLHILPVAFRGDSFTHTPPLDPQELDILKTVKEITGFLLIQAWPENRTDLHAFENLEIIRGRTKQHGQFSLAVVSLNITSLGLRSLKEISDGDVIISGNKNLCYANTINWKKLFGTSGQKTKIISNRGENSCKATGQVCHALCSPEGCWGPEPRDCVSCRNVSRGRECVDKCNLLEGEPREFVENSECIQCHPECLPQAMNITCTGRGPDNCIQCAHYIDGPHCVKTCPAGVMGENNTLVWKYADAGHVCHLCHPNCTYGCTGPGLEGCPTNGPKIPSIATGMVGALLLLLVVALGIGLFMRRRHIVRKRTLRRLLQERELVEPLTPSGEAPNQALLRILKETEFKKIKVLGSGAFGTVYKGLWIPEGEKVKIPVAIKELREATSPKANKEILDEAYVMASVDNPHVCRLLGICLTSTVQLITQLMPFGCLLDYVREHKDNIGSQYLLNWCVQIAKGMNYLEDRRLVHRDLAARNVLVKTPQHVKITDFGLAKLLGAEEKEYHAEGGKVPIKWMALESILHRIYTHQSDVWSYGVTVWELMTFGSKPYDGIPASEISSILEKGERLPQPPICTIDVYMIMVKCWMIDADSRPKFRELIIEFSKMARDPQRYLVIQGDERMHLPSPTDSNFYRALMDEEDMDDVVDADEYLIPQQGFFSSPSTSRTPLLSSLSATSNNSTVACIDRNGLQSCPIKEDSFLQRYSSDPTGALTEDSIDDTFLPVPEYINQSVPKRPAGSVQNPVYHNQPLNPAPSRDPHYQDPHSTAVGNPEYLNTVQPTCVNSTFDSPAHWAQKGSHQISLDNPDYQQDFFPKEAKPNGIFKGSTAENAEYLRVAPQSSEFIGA

Consider `Nc1nc(Nc2ccc(S(N)(=O)=O)cc2)nn1C(=O)c1c(F)cccc1F` [Cpd 1, 4-[[5-amino-1-(2,6-difluorobenzoyl)-1H-1,2,4-triazol-3-yl]amino]-benzenesulfonamide], for which the pIC50 in assay [1] is under 4.00. On to `Nc1nc(Nc2ccc(S(N)(=O)=O)cc2)nn1C(=O)c1cccs1` [Cpd 14, 4-[[5-amino-1-(2-thienylcarbonyl)-1H-1,2,4-triazol-3-yl]amino]-benzenesulfonamide], for which the pIC50 in assay [1] was 5.72.

For `Nc1nc(Nc2ccc(S(N)(=O)=O)cc2)nn1C(=O)c1sccc1F` [Cpd 16, 4-[[5-amino-1-[(3-fluoro-2-thienyl)carbonyl]-1H-1,2,4-triazol-3-yl]amino]-benzenesulfonamide], in assay [1], the pIC50 is under 4.00. On the same count and under the same terms, the result for `Nc1nc(Nc2ccc(S(N)(=O)=O)cc2)nn1C(=O)c1sccc1Cl` [Cpd 17, 4-[[5-amino-1-[(3-chloro-2-thienyl)carbonyl]-1H-1,2,4-triazol-3-yl]amino]-benzenesulfonamide] reads 5.38. Regarding `Nc1nc(Nc2ccc(S(=O)(=O)N3CCCCC3)cc2)nn1C(=O)c1cccs1` [Cpd 23, N^3-[4-(1-piperidinylsulfonyl)phenyl]-1-(2-thienylcarbonyl)-1H-1,2,4-triazole-3,5-diamine], the pIC50 in assay [1] was under 4.00.

In the case of `Nc1nc(Nc2ccc(S(N)(=O)=O)cc2)nn1C(=O)c1ccsc1` [Cpd 30, 4-[[5-amino-1-(3-thienylcarbonyl)-1H-1,2,4-triazol-3-yl]amino]-benzenesulfonamide], in assay [1], the pIC50 was 5.02.

For `CCc1ccc(C(=O)n2nc(Nc3ccc(S(N)(=O)=O)cc3)nc2N)s1` [Cpd 32, 4-[[5-amino-1-[(5-ethyl-2-thienyl)carbonyl]-1H 1,2,4-triazol-3-yl]amino]-benzenesulfonamide], the pIC50 in assay [1] is under 4.00.

For `Cc1nc(C)c(C(=O)n2nc(Nc3ccc(S(N)(=O)=O)cc3)nc2N)s1` [Cpd 34, 4-[[5-amino-1-[(2,4-dimethyl-5-thiazolyl)carbonyl]-1H-1,2,4-triazol-3-yl]amino]-benzenesulfonamide], the figures for the IC50 in assay [1] and in assay [2] were over 100 µM and 0.068 µM, respectively. For `Nc1nc(Nc2ccc(S(N)(=O)=O)cc2)nn1C(=O)C1CCCC1` [Cpd 38, 4-[[5-amino-1-(cyclopentylcarbonyl)-1H-1,2,4-triazol-3-yl]amino]-benzenesulfonamide], the figures for the IC50 (in assay [1]; in assay [2]; on CDK1:Cyclin-B) were over 100 µM, 0.88 µM and 0.029 µM, respectively.

On to `Nc1nc(Nc2ccc(S(N)(=O)=O)cc2)nn1C(=O)C1CCCCC1` [Cpd 39, 4-[[5-amino-1-(cyclohexylcarbonyl)-1H-1,2,4-triazol-3-yl]amino]-benzenesulfonamide], for which the values for the IC50 (in assay [1]; in assay [2]; at CDK1:Cyclin-B) were over 100 µM, 0.334 µM and 0.012 µM, respectively.

For the molecule `CC(C)(C)c1ccc(C(=O)n2nc(Nc3ccc(S(N)(=O)=O)cc3)nc2N)s1` [Cpd 51, 4-[[5-amino-1-[[5-(1,1-dimethylethyl)-2-thienyl]carbonyl]-1H-1,2,4-triazol-3-yl]amino]-benzenesulfonamide], the half-maximal inhibitory concentration (IC50) in assay [1] turned out to be 1.1 µM. Consider `Nc1ccc(F)c(C(=O)n2nc(Nc3ccc(S(N)(=O)=O)cc3)nc2N)c1F` [Cpd 55, 4-[[5-amino-1-(3-amino-2,6-difluorobenzoyl)-1H-1,2,4-triazol-3-yl]amino]-benzenesulfonamide], for which the IC50 in assay [1] turned out to be 16.1 µM; in assay [2] it was 0.577 µM. The matching figures for `Cc1ccccc1C(=O)n1nc(Nc2ccc(S(N)(=O)=O)cc2)nc1N` [Cpd 57, 4-[[5-amino-1-(2-methylbenzoyl)-1H-1,2,4-triazol-3-yl]amino]-benzenesulfonamide]: over 100 µM and 0.191 µM.

For the molecule `CC(O)c1ccc(F)c(C(=O)n2nc(Nc3ccc(S(N)(=O)=O)cc3)nc2N)c1F` (stereo not shown) [Cpd 58, 4-[[5-amino-1-[2,6-difluoro-3-(1-hydroxyethyl)benzoyl]-1H-1,2,4-triazol-3-yl]amino]-benzenesulfonamide], the IC50 in assay [1] was over 10 µM. Take `Nc1nc(Nc2ccc(S(N)(=O)=O)cc2)nn1C(=O)c1c(F)cccc1Cl` [Cpd 70, 4-[[5-amino-1-(2-chloro-6-fluorobenzoyl)-1H-1,2,4-triazol-3-yl]amino]-benzenesulfonamide]: the IC50 in assay [1] was over 100 µM; in assay [2] it was 0.911 µM.

On to `CN1CCN(c2ccc(Nc3nc(N)n(C(=O)c4c(F)cccc4F)n3)cc2)CC1` [Cpd 71, 1-(2,6-difluorobenzoyl)-N^3-[4-(4-methyl-1-piperazinyl)phenyl]-1H-1,2,4-triazole-3,5-diamine], for which the IC50 in assay [1] is over 10 µM.

On to `CNS(=O)(=O)c1ccc(Nc2nc(N)n(C(=O)c3sccc3C)n2)cc1` [Cpd 82, 4-[[5-amino-1-[(3-methyl-2-thienyl)carbonyl]-1H-1,2,4-triazol-3-yl]amino]-N-methyl-benzenesulfonamide], for which the IC50 was over 100 µM in assay [1], 0.118 µM in assay [3] and 0.022 µM in assay [2].

Turning to `CCc1ccc(C(=O)n2nc(Nc3ccc(S(=O)(=O)NC)cc3)nc2N)s1` [Cpd 84, 4-[[5-amino-1-[(5-ethyl-2-thienyl)carbonyl]-1H-1,2,4-triazol-3-yl]amino]-N-methyl-benzenesulfonamide], the IC50 in assay [1] was over 10 µM; in assay [3], 0.052 µM; in assay [2] it was 0.043 µM. As for `Cc1cc(C)c(C(=O)n2nc(Nc3ccc(-n4ccnc4)cc3)nc2N)s1` [Cpd 92, 1-[(3,5-diinethyl-2-thienyl)carbonyl]-N^3-[4-(1H-imidazol-1-yl)phenyl]-1H-1,2,4-triazole-3,5-diamine], the IC50 in assay [1] was over 100 µM. Same read-out and setting: the result for `CCc1ccc(C(=O)n2nc(Nc3ccc(S(=O)(=O)NCCN(C)C)cc3)nc2N)s1` [Cpd 103, 4-[[5-amino-1-[(5-ethyl-2-thienyl)carbonyl]-1H-1,2,4-triazol-3-yl]amino]-N-[2-(dimethylamino)ethyl]-benzenesulfonamide] reads over 10 µM.

`Cc1ccsc1C(=O)n1nc(Nc2ccc(S(=O)(=O)NCCN(C)C)cc2)nc1N` [Cpd 104, 4-[[5-amino-1-[(3-methyl-2-thienyl)carbonyl]-1H-1,2,4-triazol-3-yl]amino]-N-[2-(dimethylamino)ethyl]-benzenesulfonamide]: the values for the IC50 in assay [1], in assay [3] and in assay [2] were over 10 µM, 0.202 µM and 0.016 µM, respectively. For `Cc1ccsc1C(=O)n1nc(Nc2ccc(N3CCNC3=O)cc2)nc1N` [Cpd 113, 1-[4-[[5-amino-1-[(3-methyl-2-thienyl)carbonyl]-1H-1,2,4-triazol-3-yl]amino]phenyl]-2-imidazolidinone], in assay [1], the IC50 was over 10 µM. The same measure, in the same setting: the result for `Cc1ccsc1C(=O)n1nc(Nc2ccc(N3CCCS3(=O)=O)cc2)nc1N` [Cpd 116, N^3-[4-(1,1-dioxido-2-isothiazolidinyl)phenyl]-1-[(3-methyl-2-thienyl)carbonyl]-1H-1,2,4-triazole-3,5-diamine] reads over 100 µM. Turning to `Nc1nc(Nc2ccc(S(=O)(=O)Nc3ccccn3)cc2)nn1C(=O)c1c(F)cccc1F` [Cpd 118, 4-[[5-amino-1-(2,6-difluorobenzoyl)-1H-1,2,4-triazol-3-yl]amino]-N-(2-pyridinyl)-benzenesulfonamide], in assay [1], the IC50 was over 100 µM. For `Cc1cc(C)c(C(=O)n2nc(Nc3ccc(S(=O)(=O)Nc4ccccn4)cc3)nc2N)s1` [Cpd 120, 4-[[5-amino-1-[(3,5-dimethyl-2-thienyl)carbonyl]-1H-1,2,4-triazol-3-yl]amino]-N-(2-pyridinyl)-benzenesulfonamide], the IC50 in assay [1] was over 10 µM; in assay [3], 1 µM. The pIC50 in assay [3] (Table 1, read-out: HER2 IC50) was 6.00.

For `Cc1ccc(F)c(C(=O)n2nc(N)nc2Nc2ccc(S(N)(=O)=O)cc2)c1F` [Cpd 123, 4-[[3-amino-1-(2,6-difluoro-3-methylbenzoyl)-1H-1,2,4-triazol-5-yl]amino]-benzenesulfonamide], the IC50 in assay [1] is over 100 µM; in assay [2] it was 5.52 µM.
